Molecules are shown by their SMILES.

The values below come from patent publication US20230398146A1, “IMMUNE MODULATION OF MYELOID DERIVED SUPPRESSIVE CELL FUNCTION FOR CANCER TREATMENT” (SURGE Therapeutics, Inc., priority 2020, published 2023).

The subject of this experiment is 4T1-Luc2 cells. The experiment can be described thus: Survival of mice after resection of orthotopic 4T1-Luc2 breast tumors, composition administered at the tumor resection site. The experiment is classed as in vivo, mouse. Here is the method: In some embodiments, an animal model of cancer can be used to identify and/or characterize composition comprising a polymeric biomaterial and a modulator of myeloid-derived suppressive cells. For example, a tumor resection is performed on a tumor-bearing mouse, and a composition described herein, e.g., composition comprising a polymeric biomaterial and a modulator of myeloid-derived suppressive cells is administered to the tumor resection site. The survival of treated subjects is then monitored. In some embodiments, a composition comprising a polymeric biomaterial and a modulator of myeloid-derived suppressive cells is considered and/or determined to be useful in accordance with the present disclosure when it is characterized, in that when tested in vivo as described in the present Example, it extends survival of a treated subject, e.g., by at least 1 week, at least 2 weeks, at least 3 weeks, at least 4 weeks, at least 2 months, at least 3 months, at least 4 months, at least 5 months, at least 6 months, or longer, as compared to that observed in a control reference (e.g., a control in which a composition comprising a polymeric biomaterial and a modulator of myeloid-derived suppressive cells is not administered. For example, in some embodiments, a control reference may be administration of a polymeric biomaterial in the absence of a modulator of myeloid-derived suppressive cell function. In some embodiments, a control reference may be administration of a modulator of myeloid-derived suppressive cell function in solution. Alternatively, in some embodiments, a provided composition comprising a biomaterial preparation and a modulator of myeloid-derived suppressive cells is considered and/or determined to be useful for treatment of cancer (including, e.g., prevention or reduction in the likelihood of tumor relapse or metastasis) in accordance with the present disclosure when such a composition, after administration at a tumor resection site, reduces incidence of tumor recurrence and/or metastasis after the tumor resection (e.g., at least 1 month after tumor resection when the test subject is a mouse subject, or at least 3 months after tumor resection when the test subject is a human subject), for example, by at least 10% or more (comprising, e.g., at least 20%, at least 30%, at least 40%, at least 50%, at least 60%, at least 70%, at least 80%, at least 90%, or more) as compared to that observed in a control reference (e.g., as described above).
In some embodiments, female BALB/cJ mice are inoculated orthotopically with 100,000 breast cancer cells (e.g., 4T1-Luc2 cells). Ten days later, tumors are surgically resected, and either (i) a composition described herein, e.g., a composition comprising a polymeric biomaterial and a modulator of myeloid-derived suppressive cells, (ii) a composition comprising a polymeric biomaterial without a modulator of myeloid-derived suppressive cells, and/or (iii) a negative control composition (e.g., a buffered solution without such a composition) is administered into the resection cavity. Animal survival can be monitored to inspect for induction of antitumor immunity. In some embodiments, to confirm that a composition comprising a polymeric biomaterial and a modulator of myeloid-derived suppressive cells functions mechanistically, for example, by modulating recruitment and/or survival and/or proliferation of myeloid-derived suppressive cells (e.g., neutrophils), animal survival may be monitored following inhibition of recruitment and/or survival and/or proliferation of myeloid-derived suppressive cells (e.g., neutrophils). In some embodiments, to confirm that an administered composition comprising a polymeric biomaterial and a modulator of myeloid-derived suppressive cells functions mechanistically by modulating myeloid-derived suppressive cell effector function, animal survival may be monitored following modulating myeloid-derived suppressive cell effector function (e.g., as described herein). […]

[1] abbreviates: 10% w/w poloxamer 407 + 3% w/w 187 kDa HA with agent, 1.25 mg/mouse, at tumor resection site (day 10), vs same biomaterial without agent and vs 15% w/w poloxamer 407.

`Cc1c(C#N)cccc1-c1cc(-c2cn(Cc3cccc(C(C)(C)O)n3)nn2)nc(N)n1` [AB928, etrumadenant]: under setting [1], the “survival of tumor resection mice” value is “survived over a longer period of time”.

With `O=C(c1ccccc1)c1ccc2n1CCC2C(=O)O` (stereo not shown) [Ketorolac], the “survival of tumor resection mice” value by setting is: (FIG. 2A: 10% w/w poloxamer 407 + 3% w/w 187 kDa HA with agent, 6 mg/mouse, at tumor resection site, vs same biomaterial without agent and vs 15% w/w poloxamer 407) “survived over a longer period of time”; (FIG. 2B: 10% w/w poloxamer 407 + 3% w/w 187 kDa HA with agent, 9 mg/mouse, at tumor resection site, vs same biomaterial without agent and vs 15% w/w poloxamer 407) “survived over a longer period of time”; (FIG. 3: 9% w/w poloxamer 407 + 2.2% w/w 766 kDa HA with agent, 1.2 mg/mouse, at tumor resection site, vs same biomaterial without agent) “survived over a longer period of time”.

Regarding `c1cc(CN2CCCNCCNCCCNCC2)ccc1CN1CCCNCCNCCCNCC1` [Plerixafor], the “survival of tumor resection mice” value under setting [1] was “survived over a longer period of time”.

Turning to `CC/C=C\C[C@H](O)[C@H](O)/C=C/C=C/C=C\C=C\[C@@H](O)C/C=C\CCC(=O)O` [Resolvin D2], where the note is “FIG. 4: 10% w/w poloxamer 407 + 3% w/w 187 kDa HA with agent, 2.5 μg/mouse, at tumor resection site, vs same biomaterial without agent and vs 15% w/w poloxamer 407”, the “survival of tumor resection mice” value is given as “survived over a longer period of time”.

Consider `CCCCC(=O)N(Cc1ccc(-c2ccccc2-c2nnn[nH]2)cc1)[C@H](C(=O)O)C(C)C` [Valsartan], for which, under “FIG. 7: 11% w/w poloxamer 407 + 1.8% w/w 766 kDa HA with agent, 1 mg/mouse, at tumor resection site, vs same biomaterial without agent”, the “survival of tumor resection mice” value is reported as “survived over a longer period of time”.
